Key:
[1] = target: T1, insulin receptor tyrosine kinase (InsRTK) (Rattus norvegicus, UniProt P15127); assay: PolyGlu4 Tyr phosphorylation by partially purified (wheat-germ-agglutinin purified) rat liver insulin receptor, cell-free; format: biochemical; design: wheat-germ-agglutinin purified rat liver insulin receptor; from tissue; host or cells: rat liver (wheat-germ-agglutinin purified); details: for Relative cell-free potency in inhibiting InsRTK: CBZ-DNPS-TRP-Taurine 100
Experimental: An assay of PolyGlu4 Tyr phosphorylation by partially purified insulin receptor was run for 30 min at 22° C. in 60 μl of 50 mM Hepes (pH 7.4)-0.1% Triton X-100 containing wheat-germ-agglutinin purified rat liver insulin receptor (1 μg protein), MgCl2 25 mM; MnCl2, 1 mM, ATP 17 μM, insulin 0.1 μM, PolyGlu4 Tyr, 0.17 mg/ml and the indicated concentrations in FIG. 1 of CBZ-DNPS-TRP-TAU. Phosphotyrosine content in PolyGlu4 Tyr was determined by a radioimmunoassay procedure (Shisheva et al., 1991). […] The inhibitory potency of other derivatives of formula I on InsRTK-catalyzed PolyGlu4 Tyr phosphorylation in cell-free experiments was determined. […] For comparison, the IC50 values for AC-TRP-TAU and L-tryptophan are 5 mM and >30 mM, respectively.
(§1) Various derivatives according to the invention in which R^1 is benzyloxycarbonyl (CBZ) or t-butoxycarbonyl (t-Boc), R^2 is --SO3 H or --PO3 H, n is 1,2 or 3, and R^3 is H, 2-nitrophenylthio (NPS) or 2,4-dinitrophenylthio (DNPS) were prepared and examined in cell-free and intact cell systems. The cell-free assay is PolyGlu4 Tyr phosphorylation by partially purified insulin receptor as described in Example 3. The assay in intact cells (namely, lipogenesis) was carried out as described in Example 4.
Target sequence in this assay (P15127 764-1383 limits assumed): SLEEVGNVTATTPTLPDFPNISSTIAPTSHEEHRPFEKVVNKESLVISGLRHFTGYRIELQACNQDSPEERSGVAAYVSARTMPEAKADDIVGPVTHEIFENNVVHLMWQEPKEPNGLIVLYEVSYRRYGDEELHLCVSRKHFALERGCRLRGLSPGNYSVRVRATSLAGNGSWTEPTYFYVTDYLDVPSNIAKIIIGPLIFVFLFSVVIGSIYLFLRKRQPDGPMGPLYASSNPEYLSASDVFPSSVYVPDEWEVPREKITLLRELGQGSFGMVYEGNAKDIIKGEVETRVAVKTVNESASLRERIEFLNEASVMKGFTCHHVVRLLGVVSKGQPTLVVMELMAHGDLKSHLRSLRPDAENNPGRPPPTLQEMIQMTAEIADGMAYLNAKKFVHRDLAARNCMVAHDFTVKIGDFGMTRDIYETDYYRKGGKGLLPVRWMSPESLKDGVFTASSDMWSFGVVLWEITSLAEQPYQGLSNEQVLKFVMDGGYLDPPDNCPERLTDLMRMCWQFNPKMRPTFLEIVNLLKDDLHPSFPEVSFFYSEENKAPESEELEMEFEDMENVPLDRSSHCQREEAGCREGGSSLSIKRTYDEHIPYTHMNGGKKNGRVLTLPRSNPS
Target sequence in this assay (P15127 27-759 partner limits assumed): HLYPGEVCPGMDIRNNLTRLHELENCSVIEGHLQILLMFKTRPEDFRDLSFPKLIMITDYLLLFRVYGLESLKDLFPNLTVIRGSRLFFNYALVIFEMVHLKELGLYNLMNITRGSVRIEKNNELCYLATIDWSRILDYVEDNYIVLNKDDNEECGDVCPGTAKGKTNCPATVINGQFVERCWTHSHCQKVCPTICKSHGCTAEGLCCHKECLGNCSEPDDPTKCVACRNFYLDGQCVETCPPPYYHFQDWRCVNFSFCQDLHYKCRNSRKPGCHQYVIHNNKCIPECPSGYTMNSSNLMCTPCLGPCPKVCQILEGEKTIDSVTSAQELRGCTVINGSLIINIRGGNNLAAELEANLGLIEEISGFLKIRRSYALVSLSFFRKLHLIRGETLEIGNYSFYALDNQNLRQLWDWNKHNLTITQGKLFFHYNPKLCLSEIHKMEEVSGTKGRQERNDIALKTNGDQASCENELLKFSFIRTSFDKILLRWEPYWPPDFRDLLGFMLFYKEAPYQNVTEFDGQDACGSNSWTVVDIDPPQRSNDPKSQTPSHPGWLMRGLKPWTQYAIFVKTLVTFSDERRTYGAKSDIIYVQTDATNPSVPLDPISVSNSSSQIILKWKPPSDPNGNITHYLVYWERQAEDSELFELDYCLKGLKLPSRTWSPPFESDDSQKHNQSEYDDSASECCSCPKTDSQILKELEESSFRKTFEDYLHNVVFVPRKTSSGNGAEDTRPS

rat adipocytes = assay: permeability into cell interiors (intact cell system, lipogenesis); format: cell-based; details: graded in words
Experimental: Rat adipocytes were prepared essentially by the method of Rodbell, 1964. The fat pads of three rats were cut into small pieces with scissors and digested in 3 ml of Krebs-Ringer-Bicarbonate (KRB)-buffer containing 0.7% bovine serum albumin (BSA) (pH 7.4) with collagenase (1 mg/ml). The digestion was performed in a 25 ml flexible plastic bottle under an atmosphere of carbogen (95% O2, 5% CO2) for 40 min at 37° C. with vigorous shaking. Five ml of buffer was then added, and the cells were squeezed through a mesh screen. The cells were then allowed to stand for several minutes (in a 15 ml plastic test tube at room temperature, floating) and the buffer underneath was removed. This procedure (suspension, floating and removal of buffer underneath) was repeated three times. For [^14 C-U]glucose incorporation (lipogenesis), the fat cell suspensions (3×10^5 cells/ml) were divided into plastic vials (0.5 ml per vial) and incubated for 60 min at 37° C. under an atmosphere of 95% O2, 5% CO2, with 0.2 mM [U-^14 C]glucose, in either the presence or absence of insulin (100 ng/ml) and the indicated concentrations in FIG. 2 of CBZ-DNPS-TRP-TAU. The reaction was terminated by adding toluene-based scintillation fluid (1.0 ml per vial) and the extracted lipids were counted (Shechter and Karlish, 1980). Fat cell suspensions were pre-incubated for 20 min at 37° C. with increasing concentrations of the inhibitors. Results are expressed in FIG. 2 as the percent of maximal stimulation at the indicated concentrations of inhibitors. In all experiments insulin-stimulated lipogenesis was 4- to 5-fold higher than basal; basal ~2000 cpm per 3×10^5 cells/h; Vinsulin 8000-10,000 cpm per 3×10^5 cells/h.
as §1

[2] = target: T1, insulin receptor tyrosine kinase (InsRTK); assay: inactivation of InsRTK by affinity reagent; format: biochemical; details: covalent affinity reagent
From the text: Thus, to design and synthesize a low molecular weight blocker of InsRTK able to permeate into cell interiors, we first searched for an affinity reagent that would covalently bind and inactivate the InsRTK at low concentrations. […] The complementary hydrophilic domain of the InsRTK contains a lysine moiety that reacts covalently with the active ester and is likely to participate in substrate binding or catalysis. Equipped with this information we have synthesized a family of competitive inhibitors.
Target sequence in this assay (P15127 27-1383): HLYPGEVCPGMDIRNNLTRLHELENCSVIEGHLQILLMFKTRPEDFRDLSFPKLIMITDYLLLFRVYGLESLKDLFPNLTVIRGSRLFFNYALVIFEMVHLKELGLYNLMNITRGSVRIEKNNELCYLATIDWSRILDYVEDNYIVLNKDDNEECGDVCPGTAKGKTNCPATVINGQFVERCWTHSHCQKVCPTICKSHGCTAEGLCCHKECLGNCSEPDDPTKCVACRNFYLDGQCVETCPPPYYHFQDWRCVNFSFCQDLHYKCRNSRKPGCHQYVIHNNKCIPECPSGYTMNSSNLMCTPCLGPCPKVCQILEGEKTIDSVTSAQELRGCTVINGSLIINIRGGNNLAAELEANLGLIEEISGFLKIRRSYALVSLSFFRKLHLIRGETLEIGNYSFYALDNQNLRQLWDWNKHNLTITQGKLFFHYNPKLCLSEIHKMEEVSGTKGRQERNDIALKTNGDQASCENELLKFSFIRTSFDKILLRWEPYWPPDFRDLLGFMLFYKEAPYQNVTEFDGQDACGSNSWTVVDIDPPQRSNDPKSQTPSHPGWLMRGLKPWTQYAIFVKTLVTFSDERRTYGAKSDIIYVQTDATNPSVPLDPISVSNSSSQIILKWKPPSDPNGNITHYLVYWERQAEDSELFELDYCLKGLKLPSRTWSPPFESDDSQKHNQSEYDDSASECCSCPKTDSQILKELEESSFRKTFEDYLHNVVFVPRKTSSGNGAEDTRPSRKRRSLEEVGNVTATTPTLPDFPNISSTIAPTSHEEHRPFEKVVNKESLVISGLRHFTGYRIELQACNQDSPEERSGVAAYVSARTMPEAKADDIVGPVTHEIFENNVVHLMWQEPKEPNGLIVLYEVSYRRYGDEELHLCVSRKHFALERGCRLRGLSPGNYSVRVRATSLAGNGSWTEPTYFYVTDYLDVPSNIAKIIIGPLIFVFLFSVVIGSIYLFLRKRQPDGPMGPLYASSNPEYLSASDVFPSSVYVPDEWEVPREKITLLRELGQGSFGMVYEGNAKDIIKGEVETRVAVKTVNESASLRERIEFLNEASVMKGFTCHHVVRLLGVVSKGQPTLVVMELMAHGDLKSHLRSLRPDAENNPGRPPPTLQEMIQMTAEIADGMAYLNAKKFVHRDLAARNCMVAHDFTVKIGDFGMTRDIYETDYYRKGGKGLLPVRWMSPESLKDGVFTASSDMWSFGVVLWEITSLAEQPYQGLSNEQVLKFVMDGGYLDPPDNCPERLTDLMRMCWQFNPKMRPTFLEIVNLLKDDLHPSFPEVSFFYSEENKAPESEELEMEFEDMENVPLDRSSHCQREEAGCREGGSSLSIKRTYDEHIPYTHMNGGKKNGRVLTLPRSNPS

solubility = details: water
[3] = test system: isoproterenol-mediated lipolysis; assay: isoproterenol-mediated lipolysis in rat adipocytes (glycerol release); format: cell-based; details: isoproterenol 1 μM alone
Experimental: In general there are two classes of protein kinases (PKs) in mammalian tissues: (a) PKs which phosphorylate tyrosine moieties in proteins (to phosphotyrosine), and (b) PKs which phosphorylate serine and threonine moieties (to phosphoserine and phosphotreonine). […] An example for such a metabolic effect is lipolysis which depends on protein kinase A. Rat adipocytes (prepared by the method of Rodbell, 1964) were incubated with isoproterenol alone (1 μM) or isoproterenol with CBZ-DNPS-TRP-TAU (200 μM) for one hour at 37° C. The amount of glycerol released from the cells was then determined by spectroscopic procedure (Shechter, 1982).

[4] = test system: murine T-cell lymphoma (LB3); assay: insulin-dependent proliferation of murine T-cell lymphoma (LB3), thymidine incorporation; format: cell-based; details: 30,000 LB3 cells; insulin or other mitogens
Experimental: LB cells were removed from the peritoneal cavity of BALB/c mice, washed and resuspended in RPMI-1640. Then a continuous line designated LB3 was established in "LB medium" (50% RPMI-1640 plus 50% DCCM-1 in 10% fetal calf serum (FCS)). The LB3 cells were incubated (37° C., 5% CO2) in microplate wells (Nunc, Roskilde, Denmark) with 0.2 ml RPMI-1640 alone and in the same medium containing insulin, fetal calf serum (FCS) or both, and different concentrations of the compound CBZ-DNPS-TRP-TAU as indicated in FIG. 3. Proliferation capacity was determined by thymidine incorporation (^3 H-TdR, 1 μCi/well, specific activity 5 Ci/mM), added to the cells 24 hours later. In a typical experiment, cpm of ^3 H-thymidine incorporated into 30,000 cells was 12-14 fold higher in the presence of insulin or other mitogens than in their absence.

[5] = test system: insulin-stimulated lipogenesis in rat adipocytes; assay: insulin-stimulated lipogenesis in rat adipocytes ([U-14C]glucose incorporation); format: cell-based; details: insulin 100 ng/ml
Experimental: The fat pads of three rats were cut into small pieces with scissors and digested in 3 ml of Krebs-Ringer-Bicarbonate (KRB)-buffer containing 0.7% bovine serum albumin (BSA) (pH 7.4) with collagenase (1 mg/ml). […] Five ml of buffer was then added, and the cells were squeezed through a mesh screen. The cells were then allowed to stand for several minutes (in a 15 ml plastic test tube at room temperature, floating) and the buffer underneath was removed. This procedure (suspension, floating and removal of buffer underneath) was repeated three times. […] Fat cell suspensions were pre-incubated for 20 min at 37° C. with increasing concentrations of the inhibitors. Results are expressed in FIG. 2 as the percent of maximal stimulation at the indicated concentrations of inhibitors.

[6] = cell-free, 30 min, 22° C., pH 7.4, ATP 17 μM, insulin 0.1 μM, read-out: IC50 value, InsRTK-catalyzed PolyGlu4 Tyr phosphorylation

Molecule	Permeability into cell interiors (rat adipocytes)	Relative cell-free potency in inhibiting InsRTK [1] [%]	further results
CC(=O)N[C@@H](Cc1c[nH]c2ccccc12)C(=O)NCCS(=O)(=O)O [AC-TRP-TAU, reference compound]	–	–	IC50 [1, 6]: 5000 µM
CC(=O)N[C@@H](Cc1c(Sc2ccc([N+](=O)[O-])cc2[N+](=O)[O-])[nH]c2ccccc12)C(=O)NCCS(=O)(=O)O [Acetyl-DNPS-TRP-Taurine]	poor	80	Permeability into cell interiors (rat adipocytes; listed as acetyl-DNPS-TRP-TAU): low permeability; inhibition of InsRTK in words ([1]; cell-free experiments): inhibits InSRTK
O=C(O)CC(NC(=O)[C@H](Cc1c(Sc2ccc([N+](=O)[O-])cc2[N+](=O)[O-])[nH]c2ccccc12)NC(=O)OCc1ccccc1)C(=O)O (some centres unmarked) [CBZ-DNPS-TRP-Aspartic Acid]	good	5	–
O=C(N[C@@H](Cc1c(Sc2ccc([N+](=O)[O-])cc2[N+](=O)[O-])[nH]c2ccccc12)C(=O)NCS(=O)(=O)O)OCc1ccccc1 [CBZ-DNPS-TRP-aminomethyl-SO3, CBZ-DNPS-TRP-aminomethylsulfonic acid]	excellent	90	–
O=C(N[C@@H](Cc1c(Sc2ccc([N+](=O)[O-])cc2[N+](=O)[O-])[nH]c2ccccc12)C(=O)NCCCS(=O)(=O)O)OCc1ccccc1 [CBZ-DNPS-TRP-aminopropyl-SO3, CBZ-DNPS-TRP-aminopropylsulfonic acid]	excellent	70	–
O=C(N[C@@H](Cc1c(Sc2ccccc2[N+](=O)[O-])[nH]c2ccccc12)C(=O)NCCS(=O)(=O)O)OCc1ccccc1 [CBZ-NPS-TRP-TAU]	good	30	IC50 [1, 6]: 550 µM
O=C(NC(Cc1ccccc1)C(=O)ON1C(=O)CCC1=O)OCc1ccccc1 (centres unmarked) [CBZ-Phe-OSU, benzyloxycarbonylphenyl-N-hydroxysuccinimide ester]	–	–	IC50 [2]: 50 µM
O=C(N[C@@H](Cc1c[nH]c2ccccc12)C(=O)NCCS(=O)(=O)O)OCc1ccccc1 [CBZ-TRP-TAU]	poor	20	solubility (solubility): ≤ 1300 mM; IC50 [1, 6]: 2700 µM
O=C(N[C@@H](Cc1c[nH]c2ccccc12)C(=O)NCP(=O)(O)O)OCc1ccccc1 [CBZ-TRP-aminomethyl-PO3]	poor	5	–
O=C(N[C@@H](Cc1c[nH]c2ccccc12)C(=O)NCCCS(=O)(=O)O)OCc1ccccc1 [CBZ-TRP-β-TAU]	–	–	IC50 [1, 6]: 3500 µM
CC(C)CC(NC(=O)OCc1ccccc1)C(=O)NCCS(=O)(=O)O (centres unmarked) [CBZ-leucine-Taurine, reference compound]	poor	2	–
CC(C)NCC(O)c1ccc(O)c(O)c1 (centres unmarked) [Isoproterenol, isoproterenol, reference compound]	–	–	activity at 1 µM ([3]; Rattus norvegicus, Adipocyte, read-out: Percent lipolysis): 100%; Amount of glycerol released [3]: 165 nmol/3 × 10^5 cells/3 h
N[C@@H](Cc1c[nH]c2ccccc12)C(=O)O [L-tryptophan, reference compound]	–	–	IC50 [1]: > 30000 µM
CC(C)(C)OC(=O)N[C@@H](Cc1c(Sc2ccc([N+](=O)[O-])cc2[N+](=O)[O-])[nH]c2ccccc12)C(=O)NCCS(=O)(=O)O [tBoc-DNPS-TRP-Taurine, tBoc-DNPS-TRP-aminoethylsulfonic acid]	excellent	95	–
CC(C)(C)OC(=O)N[C@@H](Cc1c(Sc2ccc([N+](=O)[O-])cc2[N+](=O)[O-])[nH]c2ccccc12)C(=O)NCS(=O)(=O)O [tBoc-DNPS-TRP-aminomethyl-SO3, tBoc-DNPS-TRP-aminomethylsulfonic acid]	excellent	80	–
CC(C)(C)OC(=O)N[C@@H](Cc1c(Sc2ccc([N+](=O)[O-])cc2[N+](=O)[O-])[nH]c2ccccc12)C(=O)NCCCS(=O)(=O)O [tBoc-DNPS-TRP-aminopropyl-SO3, tBoc-DNPS-TRP-aminopropylsulfonic acid]	excellent	90	–
insulin	–	–	3H-thymidine incorporation in presence vs absence of insulin [4]: 12-14 fold; Vinsulin (lipogenesis) [5]: 8000-10,000 cpm per 3×10^5 cells/h
